Entries after “also recorded” stand apart in the source; their conditions may differ. Square brackets hold non-standard residues; d marks the D form. Peptide text beside a SMILES is read from it. * marks the point of attachment. ξ: configuration not given here. d(pY) = N[C@H](Cc1ccc(OP(=O)(O)O)cc1)C(=O)O; NBD = O=[N+]([O-])c1ccc(*)c2nonc12; ξ2Nal = NC(Cc1ccc2ccccc2c1)C(=O)O; βAla = NCCC(=O)O
Assays:
PC-12 Adh = experiment: Ectophosphatase imaging of live cells, PC-12 Adh; format: cell-based, rat; conditions: 500 μM, 24 hour incubation
Procedure: (§1) FIGS. 18A-H show imaging and ectophosphatase quantification of live cells incubated with D3-a. FIGS. 18A-F show confocal microscopy images. […] The scale bar is […]. The images in FIG. 18B show the time course of fluorescence on HeLa cells incubated with D3-a for 30 minutes, 1 hour, 3 hours, and 6 hours, respectively. Nuclei were stained with Hoechst 33342. FIG. 18C is a 3D stacked z-scan image of fluorescence on HeLa cells treated with D-3a for 6 hours. […] Scale bar: 100 μm for FIG. 18B, upper panels and FIG. 18D; 10 μm for FIG. 18B, lower panels, FIG. 18E, and FIG. 18F. [D-3a]=500 μM for enhancing spatiotemporal resolution. […] FIG. 18H is a plot of time versus the fluorescence of pericellular nanofibrils on HeLa cells treated with D-3a. The initial cell number is 5,000 cells/well. All the confocal microscope images were taken after removing the medium with D-3a and then adding the live cell image solution (Invitrogen Life Technologies A14291DJ). [D3-a]=500 μM for FIGS. 18G-H.
(§2) To validate D-3a as an effective agent for the detection of phosphatase activity on a wide variety of cells, the cellular ectophosphatase activity of various cell lines, including PC-12, Capan-2, A375, Ect1/E6E7, and C3H10T1/2, was evaluated following 24 hour incubation of cells with 500 μM D-3a (FIG. 18A).

Ect1/E6E7 = experiment: Ectophosphatase imaging of live cells, Ect1/E6E7; format: cell-based, human; conditions: 500 μM, 24 hour incubation
Procedure: as §1, §2

[1] = test system: Alkaline-phosphatase (“ALP”); conditions: D-3a; ALP (2 U/ml) in FIG. 38B
Source text: […] Scale bar=100 nm.
Napthalene capped tripeptide precursor molecule D-2a and hydrogelator molecule D-2b, synthesized according to Yang et al. (Small 3:558-562 (2007), which is hereby incorporated by reference in its entirety), are comprised of the tripeptide D-Phe-D-Phe-D-Tyr (FIG. 1B). The D-Tyr of D-2a is phosphorylated (FIG. 1B).

HeLa cells [2] = experiment: Fluorescence imaging of HeLa/HS-5 co-culture, HeLa; format: cell-based, human; conditions: co-culture of HeLa and HS-5, 500 μM, 6 and 24 hours
Source text: (§3) FIGS. 17A-C illustrates that phosphatases catalyze self-assembly to form fluorescent nanofibrils with high spatiotemporal resolution. FIG. 17A is an illustration of phosphatase-catalyzed spatiotemporal formation of fluorescent pericellular nanofibrils in co-culture mimicking tumor microenvironment. […] ALP or tyrosine phosphatase (“PTP”) converts D-3a to D-3b, which self-assembles in physiological condition to form fluorescent nanofibrils of D-3b. FIG. 17C contains a pair of fluorescent images showing that the fluorescent nanofibrils of D-3b selectively form on HeLa cells (the cancer cell, identified by arrows) and […] (the stromal cell, indicated by the arrow heads) in the co-culture of HeLa and HS-5. [D-3a]=500 μM, 6 hours (left panel) and 24 hours (right panel) incubation (scale bar=10 μm, the nuclei stained by Hoechst 33342, a DNA dye for live cells).
(§4) Co-culture of cancer cell (i.e., HeLa cells) and stromal cells (i.e., HS-5 cells) mimics the tumor microenvironment (Straussman et al., Nature 487:500-U118 (2012), which is hereby incorporated by reference in its entirety). […] This approach also offers a method for the visualization of live cells that express ectophosphatases.

C3H10T1/2 = experiment: Ectophosphatase imaging of live cells, C3H10T1/2; format: cell-based, murine; conditions: 500 μM, 24 hour incubation
Procedure: as §1, §2

Capan-2 = experiment: Ectophosphatase imaging of live cells, Capan-2; format: cell-based, human; conditions: 500 μM, 24 hour incubation
Procedure: as §1, §2

HS-5 cells = experiment: Fluorescence imaging of HeLa/HS-5 co-culture, HS-5; format: cell-based; conditions: co-culture of HeLa and HS-5, 500 μM, 6 and 24 hours
Source text: as §3, §4

A375 = experiment: Ectophosphatase imaging of live cells, A375; format: cell-based, human; conditions: 500 μM, 24 hour incubation
Procedure: as §1, §2

HeLa cells [3] = experiment: Ectophosphatase imaging of live cells, HeLa time course; format: cell-based, human
Procedure: as §1
To investigate the spatiotemporal resolution of D-3a fluorescence, HeLa cells were incubated with 500 μM D-3a for varying amounts of time (30 minutes, 1 hour, 3 hours, and 6 hours, respectively) and imaged by confocal microscopy (FIG. 18B). […] Quantification of ectophosphatase activity on the surface of HeLa cells treated with 500 μM of D-3a is shown in FIGS. 18G-18H as a function of cell number or time, respectively.

HeLa cells [4] = experiment: LC-MS composition of pericellular hydrogel/nanofibrils and suspension medium of HeLa cells; format: in vitro ADME, human; conditions: HeLa cells incubated with precursor at 560 μM at 37° C. for 12 hours
HeLa cells [5] = experiment: Cell viability assay (MTT), HeLa; format: cell-based, human; conditions: 280 μM, direct addition
Procedure: Cells in exponential growth phase were seeded in a 96 well plate at a concentration of 2×10^4 cells/well. The cells were allowed to attach to the wells for 24 hours at 37° C., 5% CO2. The culture medium was removed and 100 μL culture medium containing compounds (immediately diluted from fresh prepared stock solution of 10 mM) at gradient concentrations (0 μM as the control) was placed into each well. After culturing at 37° C., 5% CO2 for 48 hours, each well was added by 10 μL of 5 mg/mL MTT (3-(4,5-dimethylthiazoL-2-yl)-2,5-diphenyltetrazolium bromide), and the plated cells were incubated in the dark for 4 hours. 100 μL 10% SDS with 0.01M HCl was added to each well to stop the reduction reaction and to dissolve the purple. After overnight incubation of the cells at 37° C., the OD at 595 nm of the solution was measured in a microplate reader. Data represent the mean±standard deviation of three independent experiments.

HeLa cells [6] = experiment: Cell adhesion assay; format: cell-based, human; conditions: 560 μM, trypsinized HeLa cells, at 4 hours
Procedure: Cells in exponential growth phase were detached using 0.25% trypsin-EDTA. After neutralizing trypsin by addition of complete culture medium, the cells were collected by centrifuge (1000 rpm, 3 min). The cell pellet was suspended by addition of culture medium to a concentration of 4×10^5 cells/mL. 1 mL of the cell suspension was mixed with 1 mL of 2×D-2a or D-2b containing culture media. The resulting solutions were added into 96 well plate at 100 μL/well. After the desired time of incubation at 37° C., 5% CO2, the solution was gently removed, and then 100 μL of culture medium and 10 μL of 5 mg/mL MTT were added to each well. Following 4 hour incubation in the dark, 100 μL of 10% SDS with 0.01M HCl was added to each well to stop the reduction reaction and to dissolve the purple. After incubation of the cells at 37° C. for overnight, the viability was measured. Data represent the mean±standard deviation of three independent experiments.

[7] = test system: secretory phosphatases present in HeLa cell conditioned medium; experiment: Hydrogelation in HeLa cell conditioned medium; format: biochemical, human; conditions: 560 μM, 48 hours
Procedure: 2×10^5 of cells in exponential growth phase were seeded in a 35 mm Petri dish with 1 mL complete culture medium. Following overnight incubation, 1 mL of new medium was replaced and incubated for 24 h at 5% CO2, 37° C. The medium was next removed and centrifuged at 10,000 rpm for 5 minutes. The suspension was placed into a 1.5 mL Eppendorf® tube and stored at −20° C. Stored conditioned medium was thawed and warmed to 37° C. in water bath immediately before use.
HeLa cell conditioned medium (“CM”) dephosphorylates D-2a to form D-2b nanofibrils.

HeLa cells [8] = experiment: Pericellular hydrogelation on HeLa cells (optical images); format: cell-based, human; conditions: 560 μM, 2 hours at 37° C.
Procedure: An 11.2 mM (8.09 mg/mL) stock solution of D-2a was prepared in ddH2O. The pH was adjusted to 7.4 using 1N NaOH. 2×10^5 cells in exponential growth phase were seeded in 35 mm Petri dish with 1 mL complete culture medium. Following overnight incubation, the medium was replaced with 1 mL of medium containing D-2a (diluted from the stock solution immediately prior to use). Petri dishes were incubated at 37° C. for two hours. Next, dishes were removed from the incubator and titled on a bench to visualize the pericellular hydrogel. Prior to co-incubation with phosphatase inhibitors, cells were washed three times with medium containing Pierce phosphatase inhibitor cocktail (Thermo) (contains sodium floride, sodium orthovanadate, sodium pyrophosphate, and beta-glycerophosphate). Next, 1 mL of medium containing both the inhibitor cocktail and D-2a was applied to the cells.

O=C(CCNc1ccc([N+](=O)[O-])c2nonc12)NC(Cc1ccc2ccccc2c1)C(=O)N[C@H](Cc1ccccc1)C(=O)N[C@H](Cc1ccccc1)C(=O)N[C@H](Cc1ccc(OP(=O)(O)O)cc1)C(=O)O (stereo partly drawn) [D-3a, NBD-D-Nal-D-Phe-D-Phe-D-pTyr] ({NBD-βAla}-[ξ2Nal][dF][dF][d(pY)]-OH)
Cell surface exhibiting NBD fluorescence (PC-12 Adh): more than 50%
NBD fluorescence (Ect1/E6E7): strong fluorescence in the cytosol
Hydrogel formation after phosphatase-catalyzed dephosphorylation [1]: self-assembles to form the fluorescent nanonets/hydrogel
NBD fluorescence on cancer cells in co-culture (HeLa cells [2]): selective formation of bright yellow (NBD) fluorescence on the surface of the cancer cells
NBD fluorescence (C3H10T1/2): sporadic fluorescence on cell surface
NBD fluorescence (Capan-2): weak
NBD fluorescence on stromal cells in co-culture (HS-5 cells): only yellow puncta are observed inside the HS-5 stromal cells
NBD fluorescence (A375): no fluorescence
Cell surface fluorescence over time (HeLa cells [3]; 500 μM, 30 minutes, 1 hour, 3 hours, 6 hours): increased cell surface fluorescence with time
Fluorescence after re-incubation in fresh medium (HeLa cells [3]; 6 hour incubation with D-3a, then fresh medium for 24 hours): only nuclear dye fluorescence

O=C(Cc1ccc2ccccc2c1)N[C@@H](Cc1ccccc1)C(=O)N[C@@H](Cc1ccccc1)C(=O)N[C@@H](Cc1ccc(OP(=O)(O)O)cc1)C(=O)O [L-2a]
L-2b in suspension medium (HeLa cells [4]): 176.6 µM
L-3 in suspension medium (HeLa cells [4]): 270.4 µM

Nap-D-Phe-D-Phe-D-Tyr [D-2b]
Growth inhibition of HeLa cells (HeLa cells [5]): hardly inhibits the growth
Cells reattached to surface (HeLa cells [6]): > 80%
Hydrogel formation in HeLa cell conditioned medium [7]: fails to form a hydrogel
Pericellular hydrogel formation on HeLa cells (HeLa cells [8]): hardly any hydrogelation; also recorded: does not form pericellular hydrogels
